Patent US12186304B2, “Method for treating cancer by combination of IAP inhibitor and modulator of immune checkpoint molecule” (ASCENTAGE PHARMA (SUZHOU) CO., LTD., priority 2018, dated 2025)

Assay: Phase I study (NCT03386526): safety and tolerability
Procedure: The Phase I dose escalation study included two parts.
Pembrolizumab was administered 200 mg IV on day 1 of a 21-day-cycle, until disease progression or untolerated toxicity.
The inclusion criteria for the Phase I study are: Age≥18 years; ECOG PS: 0-1;
Adequate hematologic, renal and liver functions; Advanced or metastatic solid tumor patients must be refractory to or intolerant of existing therapy(ies) known to provide clinical benefit for their condition.

Structure (SMILES): CN[C@@H](C)C(=O)N[C@H]1CN(S(=O)(=O)c2cccc(S(=O)(=O)N3CC[C@H]4CC[C@@H](C(=O)NC(c5ccccc5)c5ccccc5)N4C(=O)[C@@H](NC(=O)[C@H](C)NC)C3)c2)CC[C@H]2CC[C@@H](C(=O)NC(c3ccccc3)c3ccccc3)N2C1=O [APG-1387]
- G3 above TRAEs: G3 blood bilirubin increased (60 mg monotherapy): one
- G3 above TRAEs: lipase increased (60 mg monotherapy): one
- # of pts discontinued treatment: Adverse Event (APG-1387 20 mg): 0
- # of pts discontinued treatment: Clinical progression (APG-1387 20 mg): 0
- # of pts discontinued treatment: Disease progression (APG-1387 20 mg): 2
- # of pts discontinued treatment: Lack of efficacy (APG-1387 20 mg): 1
- TRAEs (all Grades): Aspartate aminotransferase increased, patients (APG-1387 20 mg): 0
- TRAEs (all Grades): Bell's palsy, patients (APG-1387 20 mg): 0
- TRAEs (all Grades): Blood bilirubin increased, patients (APG-1387 20 mg): 0
- TRAEs (all Grades): Decreased appetite, patients (APG-1387 20 mg): 0
- TRAEs (all Grades): Dehydration, patients (APG-1387 20 mg): 0
- TRAEs (all Grades): Diarrhoea, patients (APG-1387 20 mg): 0
- TRAEs (all Grades): Dyspepsia, patients (APG-1387 20 mg): 0
- TRAEs (all Grades): Eructation, patients (APG-1387 20 mg): 0
- TRAEs (all Grades): Fatigue, patients (APG-1387 20 mg): 0
- TRAEs (all Grades): Headache, patients (APG-1387 20 mg): 0
- TRAEs (all Grades): Lipase increased, patients (APG-1387 20 mg): 0
- TRAEs (all Grades): Myalgia, patients (APG-1387 20 mg): 0
- TRAEs (all Grades): Nausea, patients (APG-1387 20 mg): 0
- TRAEs (all Grades): Peripheral sensory neuropathy, patients (APG-1387 20 mg): 0
- TRAEs (all Grades): Phlebitis, % of patients (APG-1387 20 mg): (33.3%)
- TRAEs (all Grades): Phlebitis, patients (APG-1387 20 mg): 1
- TRAEs (all Grades): Pneumonitis, patients (APG-1387 20 mg): 0
- TRAEs (all Grades): Pruritus, % of patients (APG-1387 20 mg): (33.3%)
- TRAEs (all Grades): Pruritus, patients (APG-1387 20 mg): 1
- TRAEs (all Grades): Rash maculo-papular, % of patients (APG-1387 20 mg): (33.3%)
- TRAEs (all Grades): Rash maculo-papular, patients (APG-1387 20 mg): 1
- TRAEs (all Grades): Tumor pain, patients (APG-1387 20 mg): 0
- # of pts discontinued treatment: Adverse Event (APG-1387 30 mg): 0
- # of pts discontinued treatment: Clinical progression (APG-1387 30 mg): 0
- # of pts discontinued treatment: Disease progression (APG-1387 30 mg): 3
- # of pts discontinued treatment: Lack of efficacy (APG-1387 30 mg): 0
- TRAEs (all Grades): Aspartate aminotransferase increased, patients (APG-1387 30 mg): 0
- TRAEs (all Grades): Bell's palsy, patients (APG-1387 30 mg): 0
- TRAEs (all Grades): Blood bilirubin increased, patients (APG-1387 30 mg): 0
- TRAEs (all Grades): Decreased appetite, patients (APG-1387 30 mg): 0
- TRAEs (all Grades): Dehydration, patients (APG-1387 30 mg): 0
- TRAEs (all Grades): Diarrhoea, % of patients (APG-1387 30 mg): (33.3%)
- TRAEs (all Grades): Diarrhoea, patients (APG-1387 30 mg): 1
- TRAEs (all Grades): Dyspepsia, patients (APG-1387 30 mg): 0
- TRAEs (all Grades): Eructation, patients (APG-1387 30 mg): 0
- TRAEs (all Grades): Fatigue, patients (APG-1387 30 mg): 0
- TRAEs (all Grades): Headache, % of patients (APG-1387 30 mg): (33.3%)
- TRAEs (all Grades): Headache, patients (APG-1387 30 mg): 1
- TRAEs (all Grades): Lipase increased, patients (APG-1387 30 mg): 0
- TRAEs (all Grades): Myalgia, patients (APG-1387 30 mg): 0
- TRAEs (all Grades): Nausea, % of patients (APG-1387 30 mg): (33.3%)
- TRAEs (all Grades): Nausea, patients (APG-1387 30 mg): 1
- TRAEs (all Grades): Peripheral sensory neuropathy, patients (APG-1387 30 mg): 0
- TRAEs (all Grades): Phlebitis, patients (APG-1387 30 mg): 0
- TRAEs (all Grades): Pneumonitis, patients (APG-1387 30 mg): 0
- TRAEs (all Grades): Pruritus, patients (APG-1387 30 mg): 0
- TRAEs (all Grades): Rash maculo-papular, patients (APG-1387 30 mg): 0
- TRAEs (all Grades): Tumor pain, patients (APG-1387 30 mg): 0
- # of pts discontinued treatment: Adverse Event (APG-1387 45 mg): 1
- # of pts discontinued treatment: Clinical progression (APG-1387 45 mg): 1
- # of pts discontinued treatment: Disease progression (APG-1387 45 mg): 8
- # of pts discontinued treatment: Lack of efficacy (APG-1387 45 mg): 1
- TRAEs (all Grades): Aspartate aminotransferase increased, % of patients (APG-1387 45 mg): (7.7%)
- TRAEs (all Grades): Aspartate aminotransferase increased, patients (APG-1387 45 mg): 1
- TRAEs (all Grades): Bell's palsy, % of patients (APG-1387 45 mg): (7.7%)
- TRAEs (all Grades): Bell's palsy, patients (APG-1387 45 mg): 1
- TRAEs (all Grades): Blood bilirubin increased, patients (APG-1387 45 mg): 0
- TRAEs (all Grades): Decreased appetite, % of patients (APG-1387 45 mg): (15.4%)
- TRAEs (all Grades): Decreased appetite, patients (APG-1387 45 mg): 2
- TRAEs (all Grades): Dehydration, % of patients (APG-1387 45 mg): (7.7%)
- TRAEs (all Grades): Dehydration, patients (APG-1387 45 mg): 1
- TRAEs (all Grades): Diarrhoea, patients (APG-1387 45 mg): 0
- TRAEs (all Grades): Dyspepsia, % of patients (APG-1387 45 mg): (7.7%)
- TRAEs (all Grades): Dyspepsia, patients (APG-1387 45 mg): 1
- TRAEs (all Grades): Eructation, patients (APG-1387 45 mg): 0
- TRAEs (all Grades): Fatigue, % of patients (APG-1387 45 mg): (23.1%)
- TRAEs (all Grades): Fatigue, patients (APG-1387 45 mg): 3
- TRAEs (all Grades): Headache, patients (APG-1387 45 mg): 0
- TRAEs (all Grades): Lipase increased, patients (APG-1387 45 mg): 0
- TRAEs (all Grades): Myalgia, % of patients (APG-1387 45 mg): (7.7%)
- TRAEs (all Grades): Myalgia, patients (APG-1387 45 mg): 1
- TRAEs (all Grades): Nausea, % of patients (APG-1387 45 mg): (7.7%)
- TRAEs (all Grades): Nausea, patients (APG-1387 45 mg): 1
- TRAEs (all Grades): Peripheral sensory neuropathy, % of patients (APG-1387 45 mg): (7.7%)
- TRAEs (all Grades): Peripheral sensory neuropathy, patients (APG-1387 45 mg): 1
- TRAEs (all Grades): Phlebitis, patients (APG-1387 45 mg): 0
- TRAEs (all Grades): Pneumonitis, patients (APG-1387 45 mg): 0
- TRAEs (all Grades): Pruritus, patients (APG-1387 45 mg): 0
- TRAEs (all Grades): Rash maculo-papular, patients (APG-1387 45 mg): 0
